Values quoted from earlier work, collected in patent US20220226447A1, “ANTI-ABETA VACCINE THERAPY” (AC Immune SA, priority 2019, published 2022).

Settings: human, in vivo

## AN1792: full-length Aβ1-42 vaccine
  antibody response: induced an antibody response
  rate of cognitive decline versus placebo-treated patients: slower rate of cognitive decline
  treated patients who developed meningoencephalitis: 6%
